Results: US9265253B2, “Use of macrocyclic picolinamides as fungicides” (DOW AGROSCIENCES LLC, priority 2013, dated 2016)
Like-named read-outs stand apart in the source and are kept apart here.

What was measured:
[1] = system: Mycosphaerella graminicola; Anamorph: Septoria tritici; experiment: Leaf Blotch of Wheat (SEPTTR) disease control; assay type: in vivo; settings: Zymoseptoria tritici; for pest or weed control at 100 ppm: rate 100 ppm; for pest or weed control at 121.5 g/ha: rate 121.5 g/H
In short: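 Preventive or curative tests: first-leaf Yuma wheat, sprayed to run-off, inoculated with S. tritici, dew chamber at 100% humidity, then greenhouse at 20° C. Severity on the first leaf is scored on a 0–100% scale and expressed as % control against untreated plants.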

Phakopsora pachyrhizi = experiment: Asian Soybean Rust (PHAKPA) disease control; assay type: in vivo; settings: Phakopsora pachyrhizi, topical
Experimental: Technical grades of materials were dissolved in acetone, which were then mixed with nine volumes of water containing 0.011% Tween 20. The fungicide solutions were applied onto soybean seedlings using an automated booth sprayer to run-off. All sprayed plants were allowed to air dry prior to further handling.
Soybean plants (variety Williams 82) were grown in soil-less Metro mix, with one plant per pot. Two weeks old seedlings were used for testing. Plants were inoculated either 3 days prior to or 1 day after fungicide treatments. Plants were incubated for 24 h in a dark dew room at 22° C. and 100% RH then transferred to a growth room at 23° C. for disease to develop. Disease severity was assessed on the sprayed leaves.

[2] = system: Puccinia triticina; Synonym: Puccinia recondite f. Sp. Tritici; experiment: Wheat Brown Rust (PUCCRT) disease control; assay type: in vivo; settings: Puccinia triticina, topical; for pest or weed control at 100 ppm: rate 100 ppm; for pest or weed control at 121.5 g/ha: rate 121.5 g/H
In short: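 Brown rust on first-leaf Yuma wheat: spore inoculation before or after spray application (acetone/Triton X-100 solution, or EC with Trycol in track spray), overnight 100% RH at 22 °C, disease developed at 24 °C. Severity scored 0–100% and converted to percent control against untreated.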

[3] = 24 h, 1 Day Protectant, read-out: SEPTTR 1 DP disease control
[4] = 72 h, 3 Day Curative, read-out: SEPTTR 3 DC disease control
[5] = 24 h, 1 Day Protectant, read-out: Disease Control PHAKPA 1DP
[6] = 72 h, 3 Day Curative, read-out: Disease Control PHAKPA 3DC
[7] = 24 h, 1 Day Protectant, read-out: PUCCRT 1 DP disease control
[8] = 72 h, 3 Day Curative, read-out: PUCCRT 3 DC disease control

melting point | SMILES | pest or weed control at 100 ppm [1, 3] [%] | pest or weed control at 121.5 g/ha [1, 3] [%] | pest or weed control at 100 ppm [1, 4] [%] | pest or weed control at 121.5 g/ha [1, 4] [%] | pest or weed control at 25 ppm (Phakopsora pachyrhizi; [5]) [%] | pest or weed control at 25 ppm (Phakopsora pachyrhizi; [6]) [%] | pest or weed control at 100 ppm [2, 7] [%] | pest or weed control at 121.5 g/ha [2, 7] [%] | pest or weed control at 100 ppm [2, 8] [%] | pest or weed control at 121.5 g/ha [2, 8] [%]
215 to 217 °C | CCCO[C@@H]1[C@@H](Cc2ccc(F)cc2)CCC[C@H](N)C(=O)O[C@H]1C.Cl | – | – | – | – | – | – | – | – | – | –
210 °C (dec.) | Cc1ccc(C[C@H]2CCC[C@H](N)C(=O)O[C@@H](C)[C@@H]2OCC2CC2)cc1.Cl | – | – | – | – | – | – | – | – | – | –
200 to 210 °C (dec.) | Cc1ccc(C[C@H]2CCC[C@H](N)C(=O)O[C@@H](C)[C@@H]2Oc2ccccc2)cc1.Cl | – | – | – | – | – | – | – | – | – | –
233 to 237 °C | C[C@@H]1OC(=O)[C@@H](N)CCC[C@H](Cc2ccc(F)cc2F)[C@H]1OCc1ccccc1.Cl | – | – | – | – | – | – | – | – | – | –
190 to 195 °C (dec.) | C[C@@H]1OC(=O)[C@@H](N)CCC[C@H](Cc2ccc(F)cc2F)[C@H]1OCCCc1ccccc1.Cl | – | – | – | – | – | – | – | – | – | –
67 to 73 °C | CC(C)CO[C@@H]1[C@@H](Cc2ccc(F)cc2F)CCC[C@H](N)C(=O)O[C@H]1C.Cl | – | – | – | – | – | – | – | – | – | –
– | COc1ccnc(C(=O)N[C@H]2CCC[C@H](CCC(C)C)[C@@H](OCC3CC3)[C@H](C)OC2=O)c1OC(C)=O [Compound F63] | 80 to 100 | 80 to 100 | 80 to 100 | 80 to 100 | 80 to 100 | 80 to 100 | 80 to 100 | 80 to 100 | 80 to 100 | 80 to 100
– | COc1ccnc(C(=O)N[C@H]2CCC[C@H](C)[C@@H](Oc3ccccc3)[C@H](C)OC2=O)c1OC(C)=O [Compound F76] | – | 80 to 100 | – | 80 to 100 | 80 to 100 | 80 to 100 | – | 80 to 100 | – | 80 to 100
– | COc1ccnc(C(=O)N[C@H]2CCC[C@H](CCC(C)C)[C@@H](OCC3CC3)[C@H](C)OC2=O)c1OCOC(C)=O [Compound F91] | 80 to 100 | 80 to 100 | 80 to 100 | 80 to 100 | 80 to 100 | 80 to 100 | 80 to 100 | 80 to 100 | 80 to 100 | 80 to 100
– | COc1ccnc(C(=O)N[C@H]2CCC[C@H](CCC(C)C)[C@@H](OCCCC(F)(F)F)[C@H](C)OC2=O)c1OCOC(C)=O [Compound F93] | 80 to 100 | 80 to 100 | 80 to 100 | 80 to 100 | 80 to 100 | 0 to 80 | 80 to 100 | 80 to 100 | 80 to 100 | 0 to 80
– | COc1ccnc(C(=O)N[C@H]2CCC[C@H](CC3CCCC3)[C@@H](OC(=O)C(C)C)[C@H](C)OC2=O)c1OCOC(C)=O [Compound F121] | 80 to 100 | 80 to 100 | 80 to 100 | 80 to 100 | 80 to 100 | 0 to 80 | 80 to 100 | 80 to 100 | 80 to 100 | 80 to 100
– | COc1ccnc(C(=O)N[C@H]2CCC[C@H](C)[C@@H](Oc3ccccc3)[C@H](C)OC2=O)c1OCOC(C)=O [Compound F124] | 80 to 100 | 80 to 100 | 80 to 100 | 80 to 100 | 80 to 100 | 80 to 100 | 80 to 100 | 80 to 100 | 80 to 100 | 80 to 100
– | COCC[C@H]1CCC[C@H](NC(=O)c2nccc(OC)c2OCOC(C)=O)C(=O)O[C@@H](C)[C@@H]1OCC(C)C [Compound F132] | 80 to 100 | 80 to 100 | 80 to 100 | 80 to 100 | 80 to 100 | 80 to 100 | 80 to 100 | 80 to 100 | 80 to 100 | 80 to 100
– | COc1ccnc(C(=O)N[C@H]2CCC[C@H](CCC(C)C)[C@@H](OCC3CC3)[C@H](C)OC2=O)c1OCOC(=O)C(C)C [Compound F149] | 80 to 100 | 80 to 100 | 80 to 100 | 80 to 100 | 80 to 100 | 0 to 80 | 80 to 100 | 80 to 100 | 80 to 100 | 80 to 100
– | COc1ccnc(C(=O)N[C@H]2CCC[C@H](C)[C@@H](Oc3ccccc3)[C@H](C)OC2=O)c1OCOC(=O)C(C)C [Compound F155] | 80 to 100 | 80 to 100 | 80 to 100 | 80 to 100 | 80 to 100 | 80 to 100 | 80 to 100 | 80 to 100 | 80 to 100 | 80 to 100
– | CCOCC(=O)OCOc1c(OC)ccnc1C(=O)N[C@H]1CCC[C@H](CCC(C)C)[C@@H](OCC2CC2)[C@H](C)OC1=O [Compound F160] | 80 to 100 | 80 to 100 | 80 to 100 | 80 to 100 | 80 to 100 | 80 to 100 | 80 to 100 | 80 to 100 | 80 to 100 | 80 to 100
– | C=CCO[C@@H]1[C@@H](Cc2ccc(F)cc2)CCC[C@H](NC(=O)c2nccc(OC)c2OCOC(=O)COCC)C(=O)O[C@H]1C [Compound F166] | 80 to 100 | 80 to 100 | 80 to 100 | 80 to 100 | 80 to 100 | 0 to 80 | 80 to 100 | 80 to 100 | 80 to 100 | 80 to 100
– | CCOCC(=O)OCOc1c(OC)ccnc1C(=O)N[C@H]1CCC[C@H](CCOC)[C@@H](OCC(C)C)[C@H](C)OC1=O [Compound F187] | 80 to 100 | 80 to 100 | 80 to 100 | 80 to 100 | 80 to 100 | 80 to 100 | 80 to 100 | 80 to 100 | 80 to 100 | 80 to 100
– | CCOCC(=O)OCOc1c(OC)ccnc1C(=O)N[C@H]1CCC[C@H](CC)[C@@H](Oc2ccccc2)[C@H](C)OC1=O [Compound F189] | 80 to 100 | 80 to 100 | 80 to 100 | 80 to 100 | 80 to 100 | 80 to 100 | 80 to 100 | 80 to 100 | 80 to 100 | 80 to 100
87 to 89 °C | COCN(C(=O)OC(C)(C)C)[C@H]1CCC[C@H](CCC(C)C)[C@@H](OCCCC(F)(F)F)[C@H](C)OC1=O [Compound F203] | – | – | – | – | – | – | – | – | – | –
144 to 145 °C | C[C@@H]1OC(=O)[C@@H](NC(=O)OC(C)(C)C)CCC[C@H](C)[C@H]1Oc1ccccc1 [Compound F224] | – | – | – | – | – | – | – | – | – | –
108 to 110 °C | Cc1ccc(C[C@H]2CCC[C@H](NC(=O)OC(C)(C)C)C(=O)O[C@@H](C)[C@@H]2OCc2ccccc2)cc1 [Compound F229] | – | – | – | – | – | – | – | – | – | –
110 to 114 °C | Cc1ccc(C[C@H]2CCC[C@H](N(C(=O)OC(C)(C)C)C(=O)OC(C)(C)C)C(=O)O[C@@H](C)[C@@H]2OCC(C)C)cc1 [Compound F232] | – | – | – | – | – | – | – | – | – | –
86 to 89 °C | Cc1ccc(C[C@H]2CCC[C@H](NC(=O)OC(C)(C)C)C(=O)O[C@@H](C)[C@@H]2OCC2CC2)cc1 [Compound F236] | – | – | – | – | – | – | – | – | – | –

SMILES | melting point | pest or weed control at 100 ppm [1, 3] [%] | pest or weed control at 121.5 g/ha [1, 3] [%] | pest or weed control at 100 ppm [1, 4] [%] | pest or weed control at 121.5 g/ha [1, 4] [%] | pest or weed control at 25 ppm (Phakopsora pachyrhizi; [5]) [%] | pest or weed control at 25 ppm (Phakopsora pachyrhizi; [6]) [%] | pest or weed control at 100 ppm [2, 7] [%] | pest or weed control at 121.5 g/ha [2, 7] [%] | pest or weed control at 100 ppm [2, 8] [%] | pest or weed control at 121.5 g/ha [2, 8] [%]
Cc1ccc(C[C@H]2CCC[C@H](N(C(=O)OC(C)(C)C)C(=O)OC(C)(C)C)C(=O)O[C@@H](C)[C@@H]2OCc2ccccc2)cc1 [Compound F230, tert-butyl N-[(3S,7R,8R,9S)-8-benzyloxy-9-methyl-2-oxo-7-(p-tolylmethyl)oxonan-3-yl]-N-tert-butoxycarbonyl-carbamate] | 164 to 166 °C | – | – | – | – | – | – | – | – | – | –
